Measured values published in US12377069B2, “Compounds, compositions, methods of using, and methods for preparing compounds” (UNIVERSITY OF LOUISVILLE RESEARCH FOUNDATION, INC., priority 2018, dated 2025).

Experiments:
[1] = tested on: C57BL/6 mice; assay: LPS-induced peritonitis mouse model; format: in vivo; details: 20 mg/kg; LPS 2 mg/kg i.p.; 4 h post LPS
Protocol: FIG. 1: UAS03 is a potent anti-inflammatory structural analogue of UroA and induces tight junction proteins. (A) Chemical structures of UroA, UAS03. UroA/UAS03 stability was examined in the presence of gastric pH 2.0 and digestive enzymes. UroA and UAS03 (0.2 mg/ml) were incubated with digestive enzymes (esterases and proteases, 100 U/ml) for 12 h at 37° C. and compound levels were quantified. (B) BMDMs were stimulated with LPS (50 ng/ml) without or with UroA (blue line)/UAS03 (purple line) (0.1, 1, 10, 25 and 50 μM) for 6 hours. IL-6 and TNF-α levels in supernatants were measured. (C) C57BL/6 mice (n=3-4) were pretreated with UroA (20 mg/kg) and UAS03 (20 mg/kg). After 4 hours, LPS (2 mg/kg) was injected intraperitoneally. Post 4 h of LPS administration, serum levels of IL-6 and TNF-α was measured. […] (G) The fold changes in mRNA levels of claudin 4 (Cldn4), occludin (Ocln) and Zona occludens 1 (ZO1) in HT29 cells were determined by RT PCR method. (H) UroA/UAS03 induced protein expression of Cldn4, Ocln and ZO1 in HT29 cells were determined by immunoblots and quantified by Image J software. […] The green intensity (n=15-20 cell membrane regions) was measured. […] The protein lysates were prepared from colon scrapes and subjected to immunoblots and detected the expression of the (J) Nrf2, HO1, Cldn4 and (K) AhR using appropriate antibodies as described in methods. […]

[2] = tested on: MRP2; assay: MRP2 expression in 5FU-R colon cancer cells; format: cell-based; details: SW-5FUR colon cancer cell lines
Protocol: FIG. 43: UroA/UAS03 down regulate drug transporters. (A) Expression of MRP2 is measured by real time PCR upon treating with indicated doses of UroA or UAS03 in SW-5FUR colon cancer cell lines. (B) MRP2 activity is measured using CDCFDA (diacetate ester of 5(6)-carboxy-2′,7′-dichlorofluorescein) transporter assay in SW-FUR colon cancer cell lines upon treating with UroA/USA03.
This could result in increase in intracellular drug concentration leading to increase in cell death/decreased proliferation of drug resistant cancer cells upon treatment with 5FU and UroA/UAS03.

[3] = tested on: mouse bone marrow derived macrophages (BMDMs); assay: LPS-induced IL-6 and TNF-α in BMDM; format: cell-based; details: for LPS-induced IL-6 production in AhR^−/− macrophages: AhR^−/− BMDM, up to 30 NM; for LPS induced IL-6 and TNF-α: 0.1-50 μM; for IL-6 in Nrf2^−/− (fold reduction; TNBS model and LPS-induced BMDM): Nrf2^−/− vs WT
Protocol: Measurements of IL-6 and TNF-α in BMDM: BMDM were plated in 96 (10,000 cells/well) and 12 wells (0.1×10^6 cells/well) plate for ELISA and RNA isolation. To evaluate the anti-inflammatory properties, BMDMs were stimulated with E. coli-derived lipopolysaccharides (LPS; 055:B5; Sigma) at 50 ng/mL concentration for six hours alone or in combination with UroA or UAS03 at indicated concentrations (0.01, 0.1, 1, 10, 25, 50 μM) in quadruplicates. For cytokine production via ELISA, the supernatant was collected and centrifuged at 10,000×g for 10 min at 4° C. to pellet down any cell and cytokines were quantified using IL-6 and TNF-α specific ELISA kit (Biolegend) following manufacturer's instruction.
Screening for anti-inflammatory activities: Mouse bone marrow derived macrophages (BMDM) were plated in 96 wells plate for ELISA. To evaluate the anti-inflammatory properties, BMDMs were stimulated with E. coli-derived lipopolysaccharides (LPS; 055:B5; Sigma) at 50 ng/mL concentration for six hours alone or in combination with compounds at indicated concentrations in quadruplicates. For cytokine production via ELISA, the supernatant was collected and centrifuged at 12,000 rpm for 10 min at 4° C. to pellet down any cell and cytokines were quantified using IL-6 and TNF-α specific ELISA kit (Biolegend) following manufacturer's instruction. LPS induced IL-6 or TNF-α considered as 100%.

[4] = tested on: Human Umbilical Vein Endothelial Cells (HUVECs); assay: HUVEC CDH5 expression and in vitro permeability; format: cell-based

SMILES	LPS-induced increase in serum IL-6 and TNF-α levels [1]	expression of drug transporters (MRP2) [2]	LPS-induced IL-6 production in AhR^−/− macrophages [3]	anti-inflammatory activities (LPS-induced IL-6 and TNF-α), analogue screening ([3]; LPS 50 ng/mL, six hours, compared UroA)	concentrations showing anti-inflammatory activities ([3]; LPS 50 ng/ml, 6 h)	LPS induced IL-6 and TNF-α ([3]; LPS 50 ng/ml, 6 h)	IL-6 in Nrf2^−/− (fold reduction; TNBS model and LPS-induced BMDM) [3]	expression of CDH5 (VE-Cadherin) [4]
Oc1ccc2c(c1)COc1cc(O)ccc1-2 [UAS03, 6H-benzo[c]chromene-3,8-diol]	reduced	reduce the expression	did not block	effective anti-inflammatory compounds	nano molar concentrations	decreased	reduced IL-6 in Nrf2^−/− similar to WT	increased the expression of CDH5
O=c1oc2cc(O)ccc2c2ccc(O)cc12 [UroA, 3,8-dihydroxy-6H-dibenzo[b,d]pyran-6-one]	reduced	reduce the expression	did not block	–	–	decreased	reduced IL-6 in Nrf2^−/− similar to WT	increased the expression of CDH5
